Reference: US8871767B2, “2-arylimidazo[1,2-B]pyridazine, 2-phenylimidazo[1,2-A]pyridine, and 2-phenylimidazo[1,2-A]pyrazine derivatives” (Hengrui (USA) Ltd., priority 2010, dated 2014)
Read-outs that look alike come from different tables or passages of the source.

What was measured:
[1] = system: Hedgehog pathway activation (GLi-luciferase reporter) in Shh Light II reporter cells; test: Hedgehog pathway activation on Shh Light II reporter cells measured by luciferase activity; assay type: cell-based; settings: Mus musculus, Shh Light II
In short: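 Shh Light II reporter cells carrying a hedgehog-responsive GLi-luciferase reporter were stimulated either with 500 nM SAG, a direct Smoothened agonist, or with conditioned media containing human Sonic Hedgehog (hShh). Test compounds were evaluated for blocking this pathway activation, quantified by luciferase activity. Cell viability was monitored in parallel with the Celltiter-Blue® assay.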

[2] = system: Hedgehog pathway activation on 10T1/2/Smo#3 cells (C3H10T1/2 cells transfected with human Smoothened receptor); test: Hedgehog pathway activation on 10T1/2/Smo#3 cells measured by ALP activity; assay type: cell-based; settings: Mus musculus, C3H 10T1/2, 10T1/2/Smo#3 cells
In short: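 C3H10T1/2 cells stably expressing human Smoothened were activated with hShh-conditioned medium (10-20%) or 500 nM SAG, with test compounds present. Pathway block read as inhibited ALP activity (4-methylumbelliferyl phosphate fluorescence); viability checked by CellTiter-Blue. IC50 values reported.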

[3] = hShh activation, read-out: Shh (IC50, inhibition of Hedgehog pathway activation)
[4] = measured by ALP activity, read-out: ALP (IC50, inhibition of Hedgehog pathway activation)
[5] = SAG activation (500 nM SAG), read-out: Shh Light II luciferase activity (SAG activation)
[6] = hShh activation, read-out: Shh Light II luciferase activity (hShh activation)
[7] = hShh activation, ALP activity, read-out: 10T1/2/Smo#3 ALP activity (hShh Activation)

Structure (SMILES) | IC50 [1, 3] [nM] | IC50 [2, 4] [nM] | IC50 [1, 5] [nM] | IC50 [1, 6] [nM] | IC50 [2, 7] [nM]
Cc1ccc(-c2cn3nc(-c4ccc(C(N)=O)cc4C(F)(F)F)ccc3n2)cc1NC(=O)C(C)(C)C [compound 508] | 92 | 110 | 300 to 3000 | < 300 | < 300
COC(=O)CCCCCCNC(=O)c1ccc(-c2ccc3nc(-c4ccc(C)c(NC(=O)C(C)(C)C)c4)cn3n2)c(C(F)(F)F)c1 [compound 509] | 158 | 213 | 300 to 3000 | < 300 | < 300
Cc1ccc(-c2cn3nc(-c4ccc(/C(N)=N/O)cc4C(F)(F)F)ccc3n2)cc1NC(=O)C(C)(C)C [compound 511, N-(5-(6-(4-(N′-hydroxycarbamimidoyl)-2-(trifluoromethyl)phenyl)imidazo[1,2-b]pyridazin-2-yl)-2-methylphenyl)pivalamide] | 10 | 2 | < 300 | < 300 | < 300
CC(=O)c1ccc(F)c(-c2ccc3nc(-c4ccc(C)c(NC(=O)C(C)(C)C)c4)cn3n2)c1 [compound 529] | 197 | 116 | 300 to 3000 | < 300 | < 300
Cc1ccc(-c2cn3nc(-c4ccc(NC(=O)CCCCC(=O)NO)cc4C(F)(F)F)ccc3n2)cc1NC(=O)C(C)(C)C [compound 531] | 586 | 1140 | – | – | –
Cc1ccc(-c2cn3nc(-c4ccc(C(C)(C)O)cc4C(F)(F)F)ccc3n2)cc1NC(=O)C(C)(C)C [compound 533] | 301 | 449 | – | – | –
Cc1ccc(-c2cn3nc(-c4ccc(C(=O)O)cc4Cl)ccc3n2)cc1NC(=O)C(C)(C)C [compound 540] | 447 | 891 | – | – | –
Cc1ccc(-c2cn3nc(-c4ccc(C(N)=O)cc4F)ccc3n2)cc1NC(=O)C(C)(C)C [compound 541] | 255 | 181 | – | – | –
Cc1ccc(-c2cn3nc(N4CCC(C(N)=O)CC4)ccc3n2)cc1NC(=O)C(C)(C)C [compound 542] | 94 | 88 | 300 to 3000 | < 300 | < 300
Cc1ccc(-c2cn3nc(N4CCC(C#N)CC4)ccc3n2)cc1NC(=O)C(C)(C)C [compound 544] | 224 | 462 | – | – | –
Cc1ccc(-c2cn3nc(-c4ccc(C#N)cc4F)ccc3n2)cc1NC(=O)C(C)(C)C [compound 545] | 82 | 443 | – | – | –
Cc1ccc(-c2cn3nc(-c4cccc(C=CC(=O)O)c4)ccc3n2)cc1NC(=O)C(C)(C)C [compound 554] | 316 | 1190 | 3000 to 30000 | < 300 | 300 to 3000
COC(=O)CCCCCCC(=O)Nc1ccc(-c2ccc3nc(-c4ccc(C)c(NC(=O)C(C)(C)C)c4)cn3n2)cc1 [compound 556] | 395 | 737 | – | – | –
Cc1ccc(-c2cn3nc(-c4ccc(C=CC(=O)NOC5CCCCO5)cc4)ccc3n2)cc1NC(=O)C(C)(C)C (stereo not shown) [compound 558] | 391 | 1060 | – | – | –
Cc1ccc(-c2cn3nc(-c4cccc(C=CC(=O)NO)c4)ccc3n2)cc1NC(=O)C(C)(C)C [compound 559] | 322 | 604 | – | – | –
Cc1ccc(-c2cn3nc(-c4ccc(C=CC(=O)NO)cc4)ccc3n2)cc1NC(=O)C(C)(C)C [compound 560] | 402 | 481 | 3000 to 30000 | < 300 | 300 to 3000
Cc1ccc(-c2cn3nc(-c4ccc(NC(=O)CCCCCCC(=O)NOC5CCCCO5)cc4)ccc3n2)cc1NC(=O)C(C)(C)C (stereo not shown) [compound 562] | 376 | 756 | – | – | –

Results, then the molecule that gave them:

IC50 [1, 3] [nM] | IC50 [2, 4] [nM] | IC50 [1, 5] [nM] | IC50 [1, 6] [nM] | IC50 [2, 7] [nM] | Structure (SMILES)
> 10000 | > 10000 | – | – | – | NS(=O)(=O)c1cc(-c2cn3nc(-c4cccnc4C(F)(F)F)ccc3n2)ccc1Cl [Example 697, 2-chloro-5-(6-(2-(trifluoromethyl)pyridin-3-yl)imidazo[1,2-b]pyridazin-2-yl)benzenesulfonamide]
4250 | > 10000 | – | – | – | CNS(=O)(=O)c1cc(-c2cn3nc(-c4cccnc4C(F)(F)F)ccc3n2)ccc1Cl [Example 698, 2-chloro-N-methyl-5-(6-(2-(trifluoromethyl)pyridin-3-yl)imidazo[1,2-b]pyridazin-2-yl)benzenesulfonamide]
2300 | > 10000 | – | – | – | CC(C)(C)NS(=O)(=O)c1cc(-c2cn3nc(-c4cccnc4C(F)(F)F)ccc3n2)ccc1Cl [Example 699, N-tert-butyl-2-chloro-5-(6-(2-(trifluoromethyl)pyridin-3-yl)imidazo[1,2-b]pyridazin-2-yl)benzenesulfonamide]
2500 | > 10000 | – | – | – | CN(C)S(=O)(=O)c1cc(-c2cn3nc(-c4cccnc4C(F)(F)F)ccc3n2)ccc1Cl [Example 700, 2-chloro-N,N-dimethyl-5-(6-(2-(trifluoromethyl)pyridin-3-yl)imidazo[1,2-b]pyridazin-2-yl)benzenesulfonamide]
2620 | > 10000 | – | – | – | CCNS(=O)(=O)c1cc(-c2cn3nc(-c4cccnc4C(F)(F)F)ccc3n2)ccc1Cl [Example 701, 2-chloro-N-ethyl-5-(6-(2-(trifluoromethyl)pyridin-3-yl)imidazo[1,2-b]pyridazin-2-yl)benzenesulfonamide]
3980 | > 10000 | – | – | – | O=S(=O)(NC1CC1)c1cc(-c2cn3nc(-c4cccnc4C(F)(F)F)ccc3n2)ccc1Cl [Example 702, 2-chloro-N-cyclopropyl-5-(6-(2-(trifluoromethyl)pyridin-3-yl)imidazo[1,2-b]pyridazin-2-yl)benzenesulfonamide]
1600 | > 10000 | – | – | – | CCN(CC)S(=O)(=O)c1cc(-c2cn3nc(-c4cccnc4C(F)(F)F)ccc3n2)ccc1Cl [Example 703, 2-chloro-N,N-diethyl-5-(6-(2-(trifluoromethyl)pyridin-3-yl)imidazo[1,2-b]pyridazin-2-yl)benzenesulfonamide]
311 | 205 | – | – | – | Cc1ccc(-c2cn3nc(-c4cccnc4C(F)(F)F)ccc3n2)cc1-c1cscn1 [compound 512]
16 | 71 | < 300 | < 300 | < 300 | Cc1ccc(-c2cn3nc(-c4cccnc4C(F)(F)F)ccc3n2)cc1NC(=O)C1(C)CC1 [compound 518, 1-methyl-N-(2-methyl-5-(6-(2-(trifluoromethyl)pyridin-3-yl)imidazo[1,2-b]pyridazin-2-yl)phenyl)cyclopropanecarboxamide]
56 | 139 | – | – | – | Cc1ccc(-c2cn3nc(-c4ccc(S(N)(=O)=O)cc4C(F)(F)F)ccc3n2)cc1NC(=O)C(C)(C)C [compound 535]
4 | 7 | – | – | – | Cc1ccc(-c2cn3nc(-c4ccc(C(=N)N)cc4C(F)(F)F)ccc3n2)cc1NC(=O)C(C)(C)C [compound 543, N-(5-(6-(4-carbamimidoyl-2-(trifluoromethyl)phenyl)imidazo[1,2-b]pyridazin-2-yl)-2-methylphenyl)pivalamide]
140 | 1080 | – | – | – | Cc1ccc(-c2cn3nc(-c4cccnc4C(F)(F)F)ccc3n2)cc1NC(=O)CCCCCCC(=O)NOC1CCCCO1 (stereo not shown) [compound 557, N1-(2-methyl-5-(6-(2-(trifluoromethyl)pyridin-3-yl)imidazo[1,2-b]pyridazin-2-yl)phenyl)-N8-((tetrahydro-2H-pyran-2-yl)oxy)octanediamide]
